{"source": "paper doi:10.1101/2021.04.08.439011v1", "about": "(biorxiv, 2021)", "settings_in_all_cases": "0.1 µM; binder", "key": {"FAK": {"target": "FAK (Homo sapiens, UniProt Q05397)"}, "CDK4": {"target": "CDK4 (Homo sapiens, UniProt P11802)", "sequence (P11802 whole entry)": "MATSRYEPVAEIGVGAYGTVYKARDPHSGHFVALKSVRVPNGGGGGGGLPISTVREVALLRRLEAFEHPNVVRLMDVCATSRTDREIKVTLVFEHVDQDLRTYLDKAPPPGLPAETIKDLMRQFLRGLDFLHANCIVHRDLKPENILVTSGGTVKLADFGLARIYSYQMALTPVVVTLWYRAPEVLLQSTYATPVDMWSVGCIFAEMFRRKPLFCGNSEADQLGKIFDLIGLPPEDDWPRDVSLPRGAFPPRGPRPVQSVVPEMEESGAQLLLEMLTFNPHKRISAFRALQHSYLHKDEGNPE"}, "NEK7": {"target": "NEK7 (Homo sapiens, UniProt Q8TDX7)"}, "KIT(A829P)": {"target": "KIT(A829P) (Homo sapiens, UniProt P10721, A829P)"}, "PIP5K1A": {"target": "PIP5K1A (Homo sapiens, UniProt Q99755)"}, "DMPK2": {"target": "DMPK2 (Homo sapiens, UniProt Q6DT37)"}, "CAMK2G": {"target": "CAMK2G (Homo sapiens, UniProt Q13555)"}, "WEE1": {"target": "WEE1 (Homo sapiens, UniProt P30291)"}, "NEK6": {"target": "NEK6 (Homo sapiens, UniProt Q9HC98)"}, "SRPK2": {"target": "SRPK2 (Homo sapiens, UniProt P78362)"}, "DYRK1A": {"target": "DYRK1A (Homo sapiens, UniProt Q13627)"}, "PKMYT1": {"target": "PKMYT1 (Homo sapiens, UniProt Q99640)"}, "PLK1": {"target": "PLK1 (Homo sapiens, UniProt P53350)"}, "INSRR": {"target": "INSRR (Homo sapiens, UniProt P14616)"}, "WNK4": {"target": "WNK4 (Homo sapiens, UniProt Q96J92)"}, "ERBB2": {"target": "ERBB2 (Homo sapiens, UniProt P04626)", "sequence (P04626 whole entry)": "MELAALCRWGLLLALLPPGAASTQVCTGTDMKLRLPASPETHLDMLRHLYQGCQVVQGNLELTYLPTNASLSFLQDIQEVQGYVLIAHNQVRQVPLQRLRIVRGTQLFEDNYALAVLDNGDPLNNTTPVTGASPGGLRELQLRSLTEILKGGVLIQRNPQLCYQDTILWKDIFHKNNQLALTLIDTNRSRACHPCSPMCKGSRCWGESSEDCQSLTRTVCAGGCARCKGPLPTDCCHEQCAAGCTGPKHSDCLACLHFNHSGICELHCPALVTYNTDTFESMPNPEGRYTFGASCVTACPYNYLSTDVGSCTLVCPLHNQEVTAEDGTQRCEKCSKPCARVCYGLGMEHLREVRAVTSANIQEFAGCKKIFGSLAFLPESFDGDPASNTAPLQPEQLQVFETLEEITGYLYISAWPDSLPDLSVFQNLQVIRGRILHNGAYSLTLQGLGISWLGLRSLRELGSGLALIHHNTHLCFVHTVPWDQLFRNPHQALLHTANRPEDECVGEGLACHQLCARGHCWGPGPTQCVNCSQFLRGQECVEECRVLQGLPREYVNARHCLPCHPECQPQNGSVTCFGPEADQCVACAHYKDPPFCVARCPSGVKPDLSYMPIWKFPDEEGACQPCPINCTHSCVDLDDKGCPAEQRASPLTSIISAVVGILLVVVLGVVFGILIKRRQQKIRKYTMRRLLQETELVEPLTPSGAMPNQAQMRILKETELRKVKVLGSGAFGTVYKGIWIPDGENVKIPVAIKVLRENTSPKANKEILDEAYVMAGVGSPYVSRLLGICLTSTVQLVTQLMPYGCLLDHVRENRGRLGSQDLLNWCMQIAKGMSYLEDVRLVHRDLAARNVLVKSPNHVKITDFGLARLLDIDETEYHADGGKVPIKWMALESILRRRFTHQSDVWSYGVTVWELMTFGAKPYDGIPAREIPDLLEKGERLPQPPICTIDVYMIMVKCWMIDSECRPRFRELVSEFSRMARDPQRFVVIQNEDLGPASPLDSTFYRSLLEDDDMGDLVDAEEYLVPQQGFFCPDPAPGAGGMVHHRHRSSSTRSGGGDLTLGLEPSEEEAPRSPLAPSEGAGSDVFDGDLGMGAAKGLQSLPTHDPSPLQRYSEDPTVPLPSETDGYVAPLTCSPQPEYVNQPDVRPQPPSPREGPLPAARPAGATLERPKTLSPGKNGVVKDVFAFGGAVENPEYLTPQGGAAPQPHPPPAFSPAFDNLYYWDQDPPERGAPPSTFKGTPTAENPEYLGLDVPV"}, "ROCK2": {"target": "ROCK2 (Homo sapiens, UniProt O75116)"}, "MYLK3": {"target": "MYLK3 (Homo sapiens, UniProt Q32MK0)"}, "TNK2": {"target": "TNK2 (Homo sapiens, UniProt Q07912)"}, "NEK9": {"target": "NEK9 (Homo sapiens, UniProt Q8TD19)", "sequence (Q8TD19 whole entry)": "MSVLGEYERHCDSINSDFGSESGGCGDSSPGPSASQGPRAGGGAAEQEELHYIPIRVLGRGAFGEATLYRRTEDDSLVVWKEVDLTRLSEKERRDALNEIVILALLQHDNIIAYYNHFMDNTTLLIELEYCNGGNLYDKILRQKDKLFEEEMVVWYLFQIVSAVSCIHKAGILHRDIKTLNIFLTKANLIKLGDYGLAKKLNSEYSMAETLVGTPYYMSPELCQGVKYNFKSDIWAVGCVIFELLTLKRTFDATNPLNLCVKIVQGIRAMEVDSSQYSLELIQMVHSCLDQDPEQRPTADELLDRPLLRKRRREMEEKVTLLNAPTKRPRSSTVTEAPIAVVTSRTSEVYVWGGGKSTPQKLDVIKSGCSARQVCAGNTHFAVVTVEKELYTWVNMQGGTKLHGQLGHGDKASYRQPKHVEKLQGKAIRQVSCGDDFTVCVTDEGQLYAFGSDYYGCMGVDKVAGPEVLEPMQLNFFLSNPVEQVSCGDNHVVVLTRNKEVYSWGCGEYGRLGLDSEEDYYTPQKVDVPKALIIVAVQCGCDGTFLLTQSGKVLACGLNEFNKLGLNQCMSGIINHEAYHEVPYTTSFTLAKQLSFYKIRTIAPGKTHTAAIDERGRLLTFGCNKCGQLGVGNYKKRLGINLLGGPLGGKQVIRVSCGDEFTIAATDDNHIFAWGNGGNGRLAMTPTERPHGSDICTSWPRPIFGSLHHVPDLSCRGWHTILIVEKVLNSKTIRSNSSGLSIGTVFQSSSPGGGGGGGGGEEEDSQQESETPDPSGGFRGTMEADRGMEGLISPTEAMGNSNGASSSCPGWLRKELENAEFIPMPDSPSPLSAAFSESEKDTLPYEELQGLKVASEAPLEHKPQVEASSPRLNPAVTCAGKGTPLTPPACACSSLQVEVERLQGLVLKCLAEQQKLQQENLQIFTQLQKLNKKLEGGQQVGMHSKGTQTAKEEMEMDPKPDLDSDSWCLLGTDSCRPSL"}, "CLK2": {"target": "CLK2 (Homo sapiens, UniProt P49760)"}, "EGFR(G719S)": {"target": "EGFR(G719S) (Homo sapiens, UniProt P00533, G719S)"}, "ITK": {"target": "ITK (Homo sapiens, UniProt Q08881)", "sequence (Q08881 whole entry)": "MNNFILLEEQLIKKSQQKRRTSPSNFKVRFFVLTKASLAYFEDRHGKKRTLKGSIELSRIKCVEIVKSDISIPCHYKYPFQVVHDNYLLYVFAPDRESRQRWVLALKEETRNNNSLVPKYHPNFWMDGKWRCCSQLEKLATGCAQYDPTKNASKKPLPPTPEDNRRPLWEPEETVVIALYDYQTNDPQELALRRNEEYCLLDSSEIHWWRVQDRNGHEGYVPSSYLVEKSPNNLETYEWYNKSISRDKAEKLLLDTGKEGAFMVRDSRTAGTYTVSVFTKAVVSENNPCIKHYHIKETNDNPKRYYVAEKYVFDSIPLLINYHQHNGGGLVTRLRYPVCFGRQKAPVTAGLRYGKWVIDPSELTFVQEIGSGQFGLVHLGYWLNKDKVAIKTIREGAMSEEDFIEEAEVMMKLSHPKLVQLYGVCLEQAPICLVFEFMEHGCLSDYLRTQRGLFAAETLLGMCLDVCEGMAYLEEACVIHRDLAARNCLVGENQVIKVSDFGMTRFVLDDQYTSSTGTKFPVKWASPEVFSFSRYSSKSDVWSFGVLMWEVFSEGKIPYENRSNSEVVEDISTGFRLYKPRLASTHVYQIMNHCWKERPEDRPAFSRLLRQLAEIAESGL"}, "NIM1": {"target": "NIM1 (Homo sapiens, UniProt Q8IY84)", "sequence (Q8IY84 whole entry)": "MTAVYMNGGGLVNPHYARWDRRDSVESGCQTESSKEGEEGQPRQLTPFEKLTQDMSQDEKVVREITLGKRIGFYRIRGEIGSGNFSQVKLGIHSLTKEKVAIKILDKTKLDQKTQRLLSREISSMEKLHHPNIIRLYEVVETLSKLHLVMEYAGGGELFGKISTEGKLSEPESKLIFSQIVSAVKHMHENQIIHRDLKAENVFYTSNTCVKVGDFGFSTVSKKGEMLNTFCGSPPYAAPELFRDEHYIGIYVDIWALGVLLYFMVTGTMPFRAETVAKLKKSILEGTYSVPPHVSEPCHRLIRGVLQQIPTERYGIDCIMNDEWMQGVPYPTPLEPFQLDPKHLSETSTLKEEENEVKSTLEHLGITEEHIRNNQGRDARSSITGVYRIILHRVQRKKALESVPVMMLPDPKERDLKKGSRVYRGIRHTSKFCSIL"}, "FLT1": {"target": "FLT1 (Homo sapiens, UniProt P17948)"}, "ERN1": {"target": "ERN1 (Homo sapiens, UniProt O75460)"}, "PRKD2": {"target": "PRKD2 (Homo sapiens, UniProt Q9BZL6)"}, "CAMK1": {"target": "CAMK1 (Homo sapiens, UniProt Q14012)"}, "PAK6": {"target": "PAK6 (Homo sapiens, UniProt Q9NQU5)"}, "GRK2": {"target": "GRK2 (Homo sapiens, UniProt P25098)"}, "EPHB1": {"target": "EPHB1 (Homo sapiens, UniProt P54762)", "sequence (P54762 whole entry)": "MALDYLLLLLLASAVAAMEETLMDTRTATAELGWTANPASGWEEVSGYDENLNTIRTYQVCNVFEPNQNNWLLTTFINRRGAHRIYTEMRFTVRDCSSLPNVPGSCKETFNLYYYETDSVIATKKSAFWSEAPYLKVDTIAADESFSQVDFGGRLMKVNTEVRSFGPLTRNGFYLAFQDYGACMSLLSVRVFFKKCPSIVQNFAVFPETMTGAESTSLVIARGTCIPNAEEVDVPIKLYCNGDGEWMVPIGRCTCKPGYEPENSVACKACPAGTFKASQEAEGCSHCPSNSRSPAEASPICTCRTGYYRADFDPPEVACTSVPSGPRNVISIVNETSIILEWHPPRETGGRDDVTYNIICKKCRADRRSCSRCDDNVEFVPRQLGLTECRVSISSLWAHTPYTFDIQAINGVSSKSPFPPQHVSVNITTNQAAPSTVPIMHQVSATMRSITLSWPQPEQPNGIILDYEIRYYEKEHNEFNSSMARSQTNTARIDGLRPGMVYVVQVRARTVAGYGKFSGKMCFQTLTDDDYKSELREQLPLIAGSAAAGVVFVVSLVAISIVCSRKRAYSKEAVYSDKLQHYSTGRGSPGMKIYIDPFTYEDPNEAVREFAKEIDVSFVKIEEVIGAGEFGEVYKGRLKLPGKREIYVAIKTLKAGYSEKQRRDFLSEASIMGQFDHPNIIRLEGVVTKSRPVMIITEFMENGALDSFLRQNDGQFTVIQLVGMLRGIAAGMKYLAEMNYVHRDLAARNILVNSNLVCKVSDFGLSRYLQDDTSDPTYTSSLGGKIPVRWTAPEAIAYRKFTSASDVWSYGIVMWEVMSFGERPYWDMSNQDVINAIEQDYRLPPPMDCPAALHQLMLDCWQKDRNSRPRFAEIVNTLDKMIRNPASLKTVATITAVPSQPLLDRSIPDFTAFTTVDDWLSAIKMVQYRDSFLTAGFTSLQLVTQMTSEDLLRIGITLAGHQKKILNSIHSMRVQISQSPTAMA"}, "YANK1": {"target": "YANK1 (Homo sapiens, UniProt Q8WU08)", "sequence (Q8WU08 whole entry)": "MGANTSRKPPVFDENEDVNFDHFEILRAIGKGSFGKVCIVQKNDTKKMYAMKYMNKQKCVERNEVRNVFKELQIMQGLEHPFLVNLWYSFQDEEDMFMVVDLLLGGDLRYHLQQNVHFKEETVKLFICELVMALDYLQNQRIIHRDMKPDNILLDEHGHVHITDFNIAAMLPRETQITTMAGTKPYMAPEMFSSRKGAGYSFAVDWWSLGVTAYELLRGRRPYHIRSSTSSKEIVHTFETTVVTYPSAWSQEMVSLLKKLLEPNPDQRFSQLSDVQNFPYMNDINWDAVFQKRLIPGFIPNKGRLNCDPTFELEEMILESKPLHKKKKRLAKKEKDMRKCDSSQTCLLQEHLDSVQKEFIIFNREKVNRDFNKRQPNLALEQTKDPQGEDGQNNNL"}}, "data": [{"smiles": "CNc1ncc2cc(-c3ccc(-c4cccc(C)n4)cc3Cl)c(=O)n(C[C@H]3OC[C@H](N)CO3)c2n1", "note": "[compound 6, G-5555]", "values": [{"measurement": "Percent Control", "setting": "FAK", "result": 98, "unit": "%"}, {"measurement": "Percent Control", "setting": "CDK4", "result": 100, "unit": "%"}, {"measurement": "Percent Control", "setting": "NEK7", "result": 100, "unit": "%"}, {"measurement": "Percent Control", "setting": "KIT(A829P)", "result": 81, "unit": "%"}, {"measurement": "Percent Control", "setting": "PIP5K1A", "result": 48, "unit": "%"}, {"measurement": "Percent Control", "setting": "DMPK2", "result": 89, "unit": "%"}, {"measurement": "Percent Control", "setting": "CAMK2G", "result": 100, "unit": "%"}, {"measurement": "Percent Control", "setting": "WEE1", "result": 98, "unit": "%"}, {"measurement": "Percent Control", "setting": "NEK6", "result": 100, "unit": "%"}, {"measurement": "Percent Control", "setting": "SRPK2", "result": 98, "unit": "%"}, {"measurement": "Percent Control", "setting": "DYRK1A", "result": 100, "unit": "%"}, {"measurement": "Percent Control", "setting": "PKMYT1", "result": 100, "unit": "%"}, {"measurement": "Percent Control", "setting": "PLK1", "result": 82, "unit": "%"}, {"measurement": "Percent Control", "setting": "INSRR", "result": 100, "unit": "%"}, {"measurement": "Percent Control", "setting": "WNK4", "result": 96, "unit": "%"}, {"measurement": "Percent Control", "setting": "ERBB2", "result": 100, "unit": "%"}, {"measurement": "Percent Control", "setting": "ROCK2", "result": 94, "unit": "%"}, {"measurement": "Percent Control", "setting": "MYLK3", "result": 74, "unit": "%"}, {"measurement": "Percent Control", "setting": "TNK2", "result": 92, "unit": "%"}, {"measurement": "Percent Control", "setting": "NEK9", "result": 100, "unit": "%"}, {"measurement": "Percent Control", "setting": "CLK2", "result": 100, "unit": "%"}, {"measurement": "Percent Control", "setting": "EGFR(G719S)", "result": 100, "unit": "%"}, {"measurement": "Percent Control", "setting": "ITK", "result": 100, "unit": "%"}, {"measurement": "Percent Control", "setting": "NIM1", "result": 89, "unit": "%"}, {"measurement": "Percent Control", "setting": "FLT1", "result": 94, "unit": "%"}, {"measurement": "Percent Control", "setting": "ERN1", "result": 92, "unit": "%"}, {"measurement": "Percent Control", "setting": "PRKD2", "result": 92, "unit": "%"}, {"measurement": "Percent Control", "setting": "CAMK1", "result": 100, "unit": "%"}, {"measurement": "Percent Control", "setting": "PAK6", "result": 92, "unit": "%"}, {"measurement": "Percent Control", "setting": "GRK2", "result": 97, "unit": "%"}, {"measurement": "Percent Control", "setting": "EPHB1", "result": 100, "unit": "%"}, {"measurement": "Percent Control", "setting": "YANK1", "result": 5.3, "unit": "%"}]}]}
